Measurements: PMC8776094, “Reactive Oxygen Species Production Is Responsible for Antineoplastic Activity of Osmium, Ruthenium, Iridium and Rhodium Half-Sandwich Type Complexes with Bidentate Glycosyl Heterocyclic Ligands in Various Cancer Cell Models” (International Journal of Molecular Sciences, 2022)
Several values for one entry are separate records, joined by “and”; a condition that tells them apart may be missing. Equal values may be shown once. Read-outs that look alike come from different tables or passages of the source.

How the values were obtained:
[1] = Determination of the distribution coefficients (logD), n-octanol/PBS; assay type: physicochemical; conditions: n-octanol / PBS pH = 7.40, rt
Procedure: Before starting the experiments, n-octanol was saturated with an aqueous PBS solution (pH = 7.40) and vice versa. A solution of the appropriate complex (approximately 0.2–0.3 mg) in a mixture of 2.50 mL pre-saturated n-octanol and 2.50 mL pre-saturated PBS buffer was made, and the resulting mixture was then vigorously stirred for 3 days at rt. Based on our previous NMR stability experiments, this time is long enough to reach equilibrium among the various ionic complex species. Due to the lipophilic/hydrophilic features of the complexes, those with benzoyl protection could primarily be found in the n-octanol, while the complexes with O-peracetylated and O-deprotected ligands were in the aqueous PBS phase. The corresponding separated solution was centrifuged (ScanSpeed 406G instrument, 4000 RPM for 5 min) and the absorption of the ”stock solution” was determined (VWR UV-1600PC Spectrophotometer, 270–420 nm). Then, 2.00 mL of the stock solution was vigorously stirred with 16.00 mL of pre-saturated n-octanol or PBS solution. After one day had passed, the phases were separated, centrifuged, and the absorption of the solution was measured again. From the absorption difference of the stock solutions, the distribution coefficient (D) was determined using previously described formulae [71].

[2] = tested on: A2780 ovarian cancer cells; assay: MTT reduction assay, 4 h, rapid toxicity, A2780; assay type: cell-based; conditions: 4 h treatment
Procedure: (§1) The compounds were tested between 0.001694 and 33.3333 µM, using a 4-hour-long MTT test to assess rapid toxicity and a 48-hour-long SRB assay to assess the long-term effects of the inhibition of proliferation (cytostasis). The MTT assay assesses the activity of mitochondrial complex I and detects rapid, direct toxicity, as well as indicating apoptosis and necrosis. The SRB assay measures the total protein content that is proportional to cell numbers; therefore, the assay can detect changes in cell numbers and can thus be used as a readout for cell proliferation. The SRB assay was performed after 48 h of treatment (with the exception of L428 cells, which were tested for 96 h due to their slower proliferation rate). In this setting, the SRB assay informs us of long-term changes to cell proliferation. We assessed the maximal inhibition within that concentration range, and descriptive statistics were performed. We performed a one-way ANOVA, followed by the Kruskal–Wallis test, regardless of the normal or non-normal distribution of the data. Due to the large number of significance values, the results of the significance calculations are provided in an Excel spreadsheet at https://figshare.com/s/28d14597d5041f08eb08 (accessed on 6 January 2022), among other primary data of the study. Where possible, nonlinear regression was performed on the curves to determine the IC50 values ((inhibitor) vs. response—variable slope (four parameters) method with Graphpad v8.0.1). […] In Table 5, we added the IC50 values that we determined for a set of 4 active ruthenium half-sandwich complexes we identified previously, to be used in subsequent structure-activity relationship (SAR) analyses.
(§2) A2780 cells were cultured in RMPI 1640 medium, supplemented with 10% fetal calf serum, 2 mM glutamine, and 1% penicillin-streptomycin.
The MTT reduction assay measures the activity of mitochondrial complex I and can be used to detect apoptosis and necrosis. The assay was performed similarly to the method used in [72]. Briefly, cells were plated in 96-well plates the day before the assay. Cells were treated with the compounds for 4 h, then MTT was added at 0.5 mg/mL final concentration and the cells were incubated at 37 °C in a cell incubator. The culture media were removed and the reduced MTT dye was dissolved in dimethyl-sulfoxide (DMSO) and plates were measured in a plate photometer (Thermo Scientific Multiscan GO spectrophotometer, Waltham, MA, USA) at 540 nm. On each plate, wells were designed to contain untreated/vehicle-treated cells. In the calculations, the readings for these wells were considered as 1 and all readings were expressed relative to these values.

[3] = tested on: A2780 ovarian cancer cells; assay: SRB assay, 48 h, cytostasis, A2780; assay type: cell-based; conditions: 48 h treatment
Procedure: as §1, §2
(§3) The assay was performed similarly to the method used in [73]. Cells were seeded in 96-well plates the day before the assay. Cells were treated with the compounds for 48 h, with the exception of L428, where 96 h of treatment was applied. Cells were fixed with 10% trichloroacetic acid (TCA). Fixed cells were washed in distilled water 3 times, followed by staining with SRB (0.4 m/V% dissolved in 1% acetic acid) for 10 min. The stained cells were washed in 1% acetic acid 5 times; the acetic acid was removed, and the cells were left to dry. Protein-bound SRB was released by adding 100 µL 10 mM Tris base. Plates were measured in a plate photometer (Thermo Scientific Multiscan GO spectrophotometer, Waltham, MA, USA) at 540 nm. On each plate, wells were designed to contain untreated cells. In calculations, the readings for these wells were considered as 1 and all readings were expressed relative to these values.
(§4) Statistical analysis was performed using the 8.0.1 version of Graphpad Prism. Values were tested for normal distribution, using the d’Agostino and Pearson normality test. When necessary, values were log-normalized or were normalized using the Box-Cox normalization method or using a two-step transformation, as indicated in the figure captions. Nonlinear regression was performed using the built-in “[Inhibitor] vs. Response—Variable slope (four parameters), least-square fit” utility of Graphpad, yielding the IC50 and Hill slope values.

[4] = parameters: method as in PMID 34638791; conditions: data previously published; cited from earlier work
[5] = tested on: Capan2, a pancreatic adenocarcinoma cell line; parameters: method as in PMID 34638791; conditions: SRB assay, 48 h; data previously published; cited from earlier work
[6] = tested on: A2780 ovarian cancer cells; parameters: method as in PMID 34638791; conditions: SRB assay, 48 h; data previously published; cited from earlier work
[7] = tested on: ID8 ovarian cancer cell line; parameters: method as in PMID 34638791; conditions: SRB assay, 48 h; data previously published; cited from earlier work
[8] = tested on: human primary fibroblasts; parameters: method as in PMID 34638791; conditions: SRB assay, 48 h, data previously published, cited from earlier work
[9] = tested on: ID8 ovarian cancer cell line; assay: SRB assay, 48 h, cytostasis, ID8; assay type: cell-based; conditions: 48 h treatment
Procedure: as §1
ID8 cells were cultured in a high-glucose DMEM (4.5 g/L glucose) medium, supplemented with 4% fetal calf serum, 2 mM glutamine, 1% penicillin-streptomycin, and 1% ITS supplement (I3146).
as §3, §4

[10] = tested on: human primary fibroblasts; assay: SRB assay, 48 h, cytostasis, primary fibroblasts; assay type: cell-based; conditions: MTT 4 h and SRB 48 h
Procedure: The compounds were tested between 0.001694 and 33.3333 µM, using a 4-hour-long MTT test to assess rapid toxicity and a 48-hour-long SRB assay to assess the long-term effects of the inhibition of proliferation (cytostasis). The MTT assay assesses the activity of mitochondrial complex I and detects rapid, direct toxicity, as well as indicating apoptosis and necrosis. The SRB assay measures the total protein content that is proportional to cell numbers; therefore, the assay can detect changes in cell numbers and can thus be used as a readout for cell proliferation. The SRB assay was performed after 48 h of treatment (with the exception of L428 cells, which were tested for 96 h due to their slower proliferation rate). In this setting, the SRB assay informs us of long-term changes to cell proliferation. We assessed the maximal inhibition within that concentration range, and descriptive statistics were performed. We performed a one-way ANOVA, followed by the Kruskal–Wallis test, regardless of the normal or non-normal distribution of the data. […]
The assay was performed similarly to the method used in [73]. […] Plates were measured in a plate photometer (Thermo Scientific Multiscan GO spectrophotometer, Waltham, MA, USA) at 540 nm. […] In calculations, the readings for these wells were considered as 1 and all readings were expressed relative to these values. […]

| Compound | toxicity on A2780 cells in short-term MTT assay (in words) [2] | cytostatic activity on A2780 cells in SRB assay (in words) [3] | LogD [4] | Capan2 Max. Inh. (%) [5] | IC50 [5] | A2780 Max. Inh. (%) [6] | IC50 [6] | IC50 [7] | ID8 Max. Inh. (%) [7] | other results |
| --- | --- | --- | --- | --- | --- | --- | --- | --- | --- | --- |
| Cc1ccc(C(C)C)cc1.F[P-](F)(F)(F)(F)F.O=C(OCC1OC(c2noc(-c3ccccn3)n2)C(OC(=O)c2ccccc2)C(OC(=O)c2ccccc2)C1OC(=O)c1ccccc1)c1ccccc1.[Cl][Ru+] (mixture of isomers) [Ru-1] | neither of them showed considerable activity | neither of them showed considerable activity | – | – | – | – | – | – | – | LogD [1]: 2.79 |
| Cc1ccc(C(C)C)cc1.F[P-](F)(F)(F)(F)F.OCC1OC(c2noc(-c3ccccn3)n2)C(O)C(O)C1O.[Cl][Ru+] (mixture of isomers) [Ru-2] | neither of them showed considerable activity | neither of them showed considerable activity | – | – | – | – | – | – | – | LogD [1]: −0.96 |
| Cc1ccc(C(C)C)cc1.F[P-](F)(F)(F)(F)F.O=C(OCC1OC(c2nnc(-c3ccccn3)o2)C(OC(=O)c2ccccc2)C(OC(=O)c2ccccc2)C1OC(=O)c1ccccc1)c1ccccc1.[Cl][Ru+] (mixture of isomers) [Ru-3] | – | – | 2.41 | 100% | 3.27 µM | 100% | 6.2 µM and 6.19 µM | 5.66 µM | 100% | – |
| Cc1ccc(C(C)C)cc1.F[P-](F)(F)(F)(F)F.O=C(OCC1OC(c2nnc(-c3ccccn3)o2)C(OC(=O)c2ccccc2)C(OC(=O)c2ccccc2)C1OC(=O)c1ccccc1)c1ccccc1.[Cl][Ru+] (mixture of isomers) [Ru-4] | – | – | 2.44 | 100% | 3.82 µM | 100% | 4.3 µM and 4.27 µM | 7.94 µM | 100% | – |
| Cc1ccc(C(C)C)cc1.F[P-](F)(F)(F)(F)F.O=C(OC1COC(c2nnc(-c3ccccn3)o2)C(OC(=O)c2ccccc2)C1OC(=O)c1ccccc1)c1ccccc1.[Cl][Ru+] (mixture of isomers) [Ru-5] | – | – | 2.04 | 100% | 4.97 µM | 100% | 8.5 µM and 8.54 µM | 6.76 µM | 100% | Fibroblast Max. Inh. (%) ([8]; ND = not detected): 80%; IC50 ([8]; read-out: Fibroblast IC50): 24.6 µM |
| Cc1ccc(C(C)C)cc1.F[P-](F)(F)(F)(F)F.O=C(OCC1OC(n2cc(-c3ccccn3)nn2)C(OC(=O)c2ccccc2)C(OC(=O)c2ccccc2)C1OC(=O)c1ccccc1)c1ccccc1.[Cl][Ru+] (mixture of isomers) [Ru-6] | – | – | 2.85 | 100% | 2.18 µM | 100% | 0.87 µM | 2.15 µM | 100% | – |
| OC[C@H]1O[C@@H](c2noc(-c3ccccn3)n2)[C@H](O)[C@@H](O)[C@@H]1O [Complex L-2, 3-(β-D-Glucopyranosyl)-5-(pyridin-2-yl)-1,2,4-oxadiazole] | practically inactive | practically inactive | – | – | – | – | – | – | – | – |
| Cc1c(C)c(C)[c-](C)c1C.Cc1c(C)c(C)[c-](C)c1C.[Cl-].[Cl-].[Cl-].[Cl-].[Ir+3].[Ir+3] [Ir-dimer, dichloro(pentamethylcyclopentadienyl)iridium(III) dimer] | – | inactive | – | – | – | – | – | – | – | cytostatic activity on ID8 cells, SRB assay (in words) [9]: inactive; cytotoxic or cytostatic activity on fibroblasts (in words) [10]: None of the complexes, Ir-1‒Ir-12, or the Ir-dimer exerted cytotoxic or cytostatic activity on fibroblasts |
| dichloro(pentamethylcyclopentadienyl)rhodium(III) dimer [Rh-dimer] | – | inactive | – | – | – | – | – | – | – | cytostatic activity on ID8 cells, SRB assay (in words) [9]: inactive; cytotoxic or cytostatic activity on fibroblasts (in words) [10]: None of the complexes Rh-3‒Rh-6 or the Rh-dimer exerted cytotoxic or cytostatic activity on fibroblasts |
